System: S-protein
Type: cell-based, SARS-CoV-2

Structure (SMILES): CC(C)c1nc(CN(C)C(=O)N[C@@H](CCN2CCOCC2)C(=O)N[C@H](CC[C@H](Cc2ccccc2)NC(=O)OCc2cncs2)Cc2ccccc2)cs1 [Cobicistat, 1,3-thiazol-5-ylmethyl [(2R,5R)-5-{[(2S)-2-({[(2-isopropyl-1,3-thiazol-4-yl)methyl](methyl)carbamoyl}amino)-4-(morpholin-4-yl)butanoyl]amino}-1,6-diphenylhexan-2-yl]carbamate]
- S-protein levels: decreased
- concentration range with effect in western blot analysis: 5 to 10 µM

— patent US20230107186A1, “COBICISTAT FOR PREVENTION AND/OR TREATMENT OF CORONAVIRUS INFECTIONS” (priority 2020, published 2023)
